Assay results as given in PMC8235783, “Radiopharmaceutical Formulation and Preclinical Testing of ^68Ga-Labeled DOTA-MGS5 for the Regulatory Approval of a First Exploratory Clinical Trial” (Pharmaceuticals, 2021).
Each block holds one molecule with its values, some of them ahead of it.

What was measured:
[1] = biological target: T1, CCK2R on A431-CCK2R cells (human CCK2R) (Homo sapiens, UniProt P32239); experiment: Receptor affinity competition assay against [125I][3-iodo-Tyr12,Leu15]gastrin-I; format: binding; conditions: competition against [125I][3-iodo-Tyr12,Leu15]gastrin-I on A431-CCK2R cells, 1 h at RT; n = 3 (Ga-DOTA-MGS5 n = 1)
T1 construct: expressed in transfected cells; host or cells: A431 human epidermoid carcinoma cells, stably transfected (provided by Dr. Luigi Aloj)
T1 sequence (P32239 1-447): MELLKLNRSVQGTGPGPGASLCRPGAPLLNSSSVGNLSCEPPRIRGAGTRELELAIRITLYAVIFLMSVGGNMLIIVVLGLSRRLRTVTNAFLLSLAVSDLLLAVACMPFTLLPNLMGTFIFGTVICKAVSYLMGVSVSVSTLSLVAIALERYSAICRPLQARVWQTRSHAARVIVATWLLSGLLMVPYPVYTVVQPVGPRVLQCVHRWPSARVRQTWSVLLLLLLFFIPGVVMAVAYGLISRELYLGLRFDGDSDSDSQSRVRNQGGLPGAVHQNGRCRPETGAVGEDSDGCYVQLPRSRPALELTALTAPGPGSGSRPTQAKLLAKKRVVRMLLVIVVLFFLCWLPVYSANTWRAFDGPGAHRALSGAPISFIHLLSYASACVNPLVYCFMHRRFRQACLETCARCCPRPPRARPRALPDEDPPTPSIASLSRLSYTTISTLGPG
Experimental: A431-CCK2R and A431-mock cells were cultured in Dulbecco’s Modified Eagle Medium (DMEM) and AR42J cells were cultured in RPMI-1640 medium, both supplemented with 10% (v/v) fetal bovine serum and 5 mL of a 100x penicillin–streptomycin–glutamine mixture at 37 °C in a humidified 95% air/5% CO2 atmosphere. Media and supplements were purchased from Invitrogen Corporation (Lofer, Austria).
Binding assays on A431-CCK2R cells were carried out as previously described [37]. The cells were incubated with increasing concentrations of the peptide conjugates and [^125I][3-iodo-Tyr^12,Leu^15]gastrin-I (~20,000 cpm) for 1 h at RT. Half-maximum inhibitory concentration (IC50) values were calculated after nonlinear regression using Origin software (Microcal Origin 6.1, Northampton, MA, USA).

[2] = 14-day extended single-dose intravenous toxicity study in rats; format: in vivo
Experimental: In the preclinical evaluation of the safety profile of DOTA-MGS5, a targeted approach was followed for the 14-day extended single-dose toxicity study conducted in male Wistar rats. Instead of performing the study in animals of both sexes at a single dose level, the non-clinical evaluation was confined to male animals, including, however, three different dose levels based on mg/kg scaling and body surface scaling (applying a factor of 6.2). Considering a maximum dose of 50 µg administered to patients and an exposure margin of 100-fold the clinical dose, a dose level of 0.5 mg/kg body weight was calculated for the study and used as medium dose. Two additional dose levels of 0.1 mg/kg body weight and 2.5 mg/kg body weight were selected to allow a more accurate evaluation of the safety profile. Based on the preclinical biodistribution studies, the stomach, pancreas, and kidneys were identified as the main target organs. In addition to these organs, the liver and colon as potential additional routes of excretion, as well as spleen and sternum (including bone marrow), were also included in the histopathological evaluation.
A NOAEL (no observed adverse effect level) of 2.5 mg/kg body weight was established from the study for the single administration of DOTA-MGS5. When considering body surface scaling from rats to humans, the NOAEL of 2.5 mg/kg body weight translates to a HED (human equivalent dose) of 0.4 mg/kg body weight. By applying a safety factor of 100, a maximum dose of 4 µg/kg body weight was established for human subjects receiving the initial clinical dose. For the first PET/CT examinations with ^68Ga-DOTA-MGS5, a maximum dose of 50 µg could be established as clinical dose, which remains well below the maximum dose of 4 µg/kg body weight.
The safety of the intravenous injection was tested for unlabeled DOTA-MGS5 in a GLP-compliant 14-day extended single-dose intravenous toxicity study in rats using the intravenous route of administration. The study was designed following a targeted microdose approach based on the ICH guideline M3 (R2) on non-clinical safety studies for the conduct of human clinical trials and marketing authorization for pharmaceuticals (EMA/CPMP/ICH/286/1995, December 2009), as well as the draft guideline on the non-clinical requirements for radiopharmaceuticals (EMA/CHMP/SWP/686140/2018, 15 November 2018). The study was conducted in a GLP-compliant laboratory (BSL BIOSERVICE Scientific Laboratories Munich GmbH, Planegg/Munich, Germany) using 60 6–7-week-old male healthy Wistar rats (Crl: WI(Han), Full Barrier, Charles River, Sulzfeld, Germany). […] Body weight and food consumption was determined on a weekly basis. […]

[3] = in vivo; conditions: female, BALB/c, mouse, iv, 20 pmol peptide
Experimental: The biodistribution profile of ^68Ga-DOTA-MGS5 in female BALB/c mice was evaluated for the time points of 5, 20, 60, and 90 min post injection (p.i.).
Biodistribution studies evaluating the pharmacokinetics and tissue distribution of ^68Ga-DOTA-MGS5 were performed in 6-week-old female BALB/c mice (n = 12). Groups of three mice for each time point were injected intravenously via a lateral tail vein with ~1 MBq of ^68Ga-DOTA-MGS5 corresponding to 20 pmol peptide. The mice were euthanized by cervical dislocation 5, 20, 60, and 90 min after injection and different tissues (blood, lung, heart, muscle, spleen, intestine, liver, kidneys, pancreas, stomach, and femur) were removed, weighed, and their radioactivity measured in a gamma-counter together with a standard and the residual body. Results were expressed as percentage of injected activity per organ (% IA) and per gram tissue (% IA/g).

[4] = biological target: T2, A431-CCK2R cells (human CCK2R) (Homo sapiens, UniProt P32239); conditions: 1 h incubation; cited from earlier work
T2 construct: expressed in transfected cells; host or cells: A431 human epidermoid carcinoma cells, stably transfected (provided by Dr. Luigi Aloj)
T2 sequence (P32239 1-447): T1 sequence (P32239 1-447)
Experimental: For the time point of 1 h incubation, a cell internalization of ~20% was reported for ^177Lu-DOTA-PP-F11N in A431-CCK2R cells.

[5] = injected dose of 150 MBq; cited from earlier work
Experimental: When extrapolating the biodistribution data from mice to humans, a whole-body effective dose of 0.0102 mSv/MBq for men and of 0.0131 mSv/MBq for women was calculated. In Table 4, a summary of the calculated organ absorbed doses is given. At a maximum injected activity of 185 MBq, a whole-body radiation dose of 1.9–2.4 mSv can be anticipated for a PET examination with ^68Ga-DOTA-MGS5. The radiation exposure from the radioactive substance is in a similar range of a low-dose CT scan of 3–6 mSv. Due to the potential hazards of ionizing radiation, the dose of the PET/CT scan should be kept a ...

[6] = biological target: T3, AR42J cells with physiological expression of rat CCK2R (Rattus norvegicus, UniProt P30553); conditions: 4 h after incubation; cited from earlier work
T3 construct: In AR42J cells with physiological expression of rat CCK2R; host or cells: AR42J rat pancreatic tumor cells
T3 sequence (P30553 1-452): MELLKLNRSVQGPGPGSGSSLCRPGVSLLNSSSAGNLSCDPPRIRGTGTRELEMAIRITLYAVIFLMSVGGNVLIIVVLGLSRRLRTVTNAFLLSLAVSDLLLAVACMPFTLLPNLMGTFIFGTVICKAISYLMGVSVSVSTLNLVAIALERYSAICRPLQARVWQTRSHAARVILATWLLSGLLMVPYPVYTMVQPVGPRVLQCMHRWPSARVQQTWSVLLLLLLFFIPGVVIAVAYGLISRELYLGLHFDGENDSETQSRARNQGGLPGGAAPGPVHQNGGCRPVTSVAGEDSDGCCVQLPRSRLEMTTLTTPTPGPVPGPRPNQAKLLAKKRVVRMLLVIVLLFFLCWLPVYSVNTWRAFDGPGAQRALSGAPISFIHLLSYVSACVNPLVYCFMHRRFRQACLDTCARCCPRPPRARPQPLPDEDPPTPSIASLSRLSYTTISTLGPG

[7] = total radioactivity, uptake in blood
[8] = total radioactivity, uptake in femur
[9] = total radioactivity, uptake in heart
[10] = total radioactivity, uptake in intestine
[11] = total radioactivity, uptake in kidneys
[12] = total radioactivity, uptake in liver
[13] = total radioactivity, uptake in lung
[14] = total radioactivity, uptake in muscle
[15] = total radioactivity, uptake in pancreas
[16] = total radioactivity, uptake in spleen
[17] = total radioactivity, uptake in stomach

IC50 [1]: 0.5 ± 0.1 nM
Molecule: Ga-DOTA-MGS5: DOTA-MGS5 labeled with the stable isotope of gallium, reference standard

Molecule: CCCC[C@@H](C(=O)N[C@@H](CC(=O)O)C(=O)N[C@@H](Cc1cccc2ccccc12)C(N)=O)N(C)C(=O)[C@H](Cc1c[nH]c2ccccc12)NC(=O)CNC(=O)[C@H](Cc1ccc(O)cc1)NC(=O)[C@H](C)NC(=O)[C@@H](CCC(=O)O)NC(=O)CN1CCN(CC(=O)O)CCN(CC(=O)O)CCN(CC(=O)O)CC1 [DOTA-MGS5, DOTA-DGlu-Ala-Tyr-Gly-Trp-(N-Me)Nle-Asp-1-Nal-NH2]
IC50 [1]: 0.5 ± 0.1 nM | treatment-related mortality or clinical symptoms ([2]; i.v. 0.1, 0.5 and 2.5 mg/kg BW, male Wistar rats, until end of observation periods (2 and 14 days)): no treatment-related mortality or clinical symptoms occurred | HED (human equivalent dose) ([2]; rat, in vivo): 0.4 mg/kg body weight | maximum dose for human subjects receiving the initial clinical dose ([2]; rat, in vivo): 4 µg/kg body weight

Molecule: CCCC[C@@H](C(=O)N[C@@H](CC(=O)O)C(=O)N[C@@H](Cc1cccc2ccccc12)C(N)=O)N(C)C(=O)[C@H](Cc1c[nH]c2ccccc12)NC(=O)CNC(=O)[C@H](Cc1ccc(O)cc1)NC(=O)[C@H](C)NC(=O)[C@@H](CCC(=O)O)NC(=O)CN1CCN(CC(=O)O)CCN(CC(=O)O)CCN(CC(=O)O)CC1 [^68Ga-DOTA-MGS5, metal not drawn]
uptake in blood ([3]; 1.5 h): 0.94 ± 0.08 % IA/g | tissue uptake dose at 5 min ([3]; total radioactivity): 81.8 ± 2.5 %ID | tissue uptake dose at 1.5 h ([3]; total radioactivity): 11.4 ± 1.7 %ID | tissue uptake at 5 min [3, 7]: 17.6 ± 3.01 %ID/g | tissue uptake at 20 min [3, 7]: 6.76 ± 1.17 %ID/g | tissue uptake at 1 h [3, 7]: 1.99 ± 0.22 %ID/g | tissue uptake at 1.5 h [3, 7]: 0.9 ± 0.1 %ID/g | tissue uptake at 5 min [3, 8]: 2.77 ± 0.34 %ID/g | tissue uptake at 20 min [3, 8]: 1.75 ± 0.93 %ID/g | tissue uptake at 1 h [3, 8]: 0.62 ± 0.09 %ID/g | tissue uptake at 1.5 h [3, 8]: 0.55 ± 0.09 %ID/g | tissue uptake at 5 min [3, 9]: 5.11 ± 0.07 %ID/g | tissue uptake at 20 min [3, 9]: 2.24 ± 0.57 %ID/g | tissue uptake at 1 h [3, 9]: 0.7 ± 0.16 %ID/g | tissue uptake at 1.5 h [3, 9]: 0.35 ± 0.02 %ID/g | tissue uptake at 5 min [3, 10]: 2.42 ± 0.21 %ID/g | tissue uptake at 20 min [3, 10]: 1.22 ± 0.25 %ID/g | tissue uptake at 1 h [3, 10]: 0.75 ± 0.17 %ID/g | tissue uptake at 1.5 h [3, 10]: 0.62 ± 0.08 %ID/g | tissue uptake at 5 min [3, 11]: 17.6 ± 2.79 %ID/g | tissue uptake at 20 min [3, 11]: 8.41 ± 1.33 %ID/g | tissue uptake at 1 h [3, 11]: 5.11 ± 0.33 %ID/g | tissue uptake at 1.5 h [3, 11]: 4.6 ± 0.32 %ID/g | tissue uptake at 5 min [3, 12]: 5.02 ± 0.06 %ID/g | tissue uptake at 20 min [3, 12]: 2.28 ± 0.31 %ID/g | tissue uptake at 1 h [3, 12]: 1.21 ± 0.12 %ID/g | tissue uptake at 1.5 h [3, 12]: 1 ± 0.06 %ID/g | tissue uptake at 5 min [3, 13]: 8.51 ± 2.33 %ID/g | tissue uptake at 20 min [3, 13]: 3.78 ± 0.53 %ID/g | tissue uptake at 1 h [3, 13]: 1.1 ± 0.11 %ID/g | tissue uptake at 1.5 h [3, 13]: 0.59 ± 0.1 %ID/g | tissue uptake at 5 min [3, 14]: 2.89 ± 0.18 %ID/g | tissue uptake at 20 min [3, 14]: 1.03 ± 0.21 %ID/g | tissue uptake at 1 h [3, 14]: 0.49 ± 0.19 %ID/g | tissue uptake at 1.5 h [3, 14]: 0.18 ± 0.04 %ID/g | tissue uptake at 5 min [3, 15]: 4.03 ± 0.19 %ID/g | tissue uptake at 20 min [3, 15]: 2.17 ± 0.16 %ID/g | tissue uptake at 1 h [3, 15]: 1.5 ± 0.38 %ID/g | tissue uptake at 1.5 h [3, 15]: 1.42 ± 0.3 %ID/g | tissue uptake at 5 min [3, 16]: 3.53 ± 0.43 %ID/g | tissue uptake at 20 min [3, 16]: 1.7 ± 0.38 %ID/g | tissue uptake at 1 h [3, 16]: 0.71 ± 0.05 %ID/g | tissue uptake at 1.5 h [3, 16]: 0.69 ± 0.09 %ID/g | tissue uptake at 5 min [3, 17]: 6.63 ± 0.23 %ID/g | tissue uptake at 20 min [3, 17]: 4.09 ± 0.98 %ID/g | tissue uptake at 1 h [3, 17]: 4.63 ± 0.65 %ID/g | tissue uptake at 1.5 h [3, 17]: 4.12 ± 0.3 %ID/g | maximum dose established as clinical dose ([2]; rat, in vivo): 50 µg

Molecule: DOTA-(DGlu)6-Ala-Tyr-Gly-Trp-Nle-Asp-Phe-NH2 [^177Lu-DOTA-PP-F11N, minigastrin analog radiolabeled with lutetium-177, in clinical studies]
cell internalization [4]: ~ 20%

Molecule: O=C([O-])CN(CCN(CC(=O)[O-])Cc1cc(CCC(=O)NCCCCCC(=O)NCCCC[C@H](NC(=O)N[C@@H](CCC(=O)O)C(=O)O)C(=O)O)ccc1[O-])Cc1cc(CCC(=O)O)ccc1[O-].[68Ga+3].[OH3+] [^68Ga-PSMA-11]
effective radiation dose [5]: 2.4 mSv

Molecule: DOTA-(DGlu)6-Ala-Tyr-Gly-Trp-Met-Asp-Phe-NH2 [^111In-CP04, minigastrin analog radiolabeled with indium-111, in clinical studies]
cell uptake [6]: 14.4 ± 0.8%
